In US20090057617A1, “Corrosion inhibitors containing anionic surfactants” (priority 2007, published 2009):

Assay: Shell wheel test (corrosion inhibition)
Details: 50 ppm of a 24% solution of the inhibitor; salt water/petroleum mixture 9:1, 5% NaCl, pH 3.5; 40 rpm, 70° C., 24 hours; from decrease in coupon mass, based on a blank value
Method: The compounds according to the invention were tested as corrosion inhibitors in the Shell wheel test. Coupons of C steel (DIN 1.1203 with 15 cm^2 surface area) were immersed in a salt water/petroleum mixture (9:1,5% strength NaCl solution adjusted to pH 3.5 with acetic acid) and exposed to this medium at a speed of 40 rpm at 70° C. for 24 hours. The inhibitor dose was 50 ppm of a 24% solution of the inhibitor. The protection values were calculated from the decrease in the mass of the coupons, based on a blank value.

With CCCCCCCC/C=C\CCCCCCCC(=O)NC(CCSC)C(=O)[O-].[K+] (racemic) [example 2, N-Oleoyl-DL-methionine potassium Salt] as the compound, how does the ø protection % read?
The ø protection % was 69%.
